{
  "source": "the Kinase Knowledgebase extract (Sharma et al. 2016)",
  "data": [
    {"target": "EGFR (human) (UniProt P00533)", "sequence (P00533 whole entry, looked up)": "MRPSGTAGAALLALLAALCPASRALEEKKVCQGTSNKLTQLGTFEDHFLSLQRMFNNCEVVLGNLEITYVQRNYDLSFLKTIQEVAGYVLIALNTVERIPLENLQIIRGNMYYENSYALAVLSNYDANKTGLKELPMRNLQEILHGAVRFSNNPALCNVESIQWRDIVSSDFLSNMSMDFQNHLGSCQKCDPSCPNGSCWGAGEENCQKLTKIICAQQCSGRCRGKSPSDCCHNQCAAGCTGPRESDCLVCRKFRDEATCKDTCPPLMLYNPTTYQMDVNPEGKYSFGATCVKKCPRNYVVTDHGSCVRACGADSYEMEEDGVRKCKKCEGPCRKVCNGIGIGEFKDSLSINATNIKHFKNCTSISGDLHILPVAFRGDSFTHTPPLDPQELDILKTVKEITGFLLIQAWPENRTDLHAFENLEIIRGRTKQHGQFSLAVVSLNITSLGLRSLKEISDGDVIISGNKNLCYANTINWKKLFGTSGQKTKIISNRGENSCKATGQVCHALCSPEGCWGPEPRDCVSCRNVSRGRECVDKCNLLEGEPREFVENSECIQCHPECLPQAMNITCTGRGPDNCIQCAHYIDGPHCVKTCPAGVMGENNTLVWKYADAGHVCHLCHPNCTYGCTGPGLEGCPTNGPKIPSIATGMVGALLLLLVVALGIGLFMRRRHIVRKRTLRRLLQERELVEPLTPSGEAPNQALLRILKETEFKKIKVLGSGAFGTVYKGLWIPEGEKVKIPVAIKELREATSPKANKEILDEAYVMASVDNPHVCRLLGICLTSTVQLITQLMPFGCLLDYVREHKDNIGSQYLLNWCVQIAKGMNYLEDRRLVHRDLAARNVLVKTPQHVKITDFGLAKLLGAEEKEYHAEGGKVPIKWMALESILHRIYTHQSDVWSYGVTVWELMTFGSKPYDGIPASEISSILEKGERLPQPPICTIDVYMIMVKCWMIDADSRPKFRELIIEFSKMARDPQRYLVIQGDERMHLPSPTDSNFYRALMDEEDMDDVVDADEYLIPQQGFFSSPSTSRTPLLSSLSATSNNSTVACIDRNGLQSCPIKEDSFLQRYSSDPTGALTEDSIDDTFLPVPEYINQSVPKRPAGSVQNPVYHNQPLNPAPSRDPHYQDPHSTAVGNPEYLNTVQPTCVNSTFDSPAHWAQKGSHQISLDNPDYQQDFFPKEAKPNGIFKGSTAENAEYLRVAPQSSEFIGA", "units": {"IC50": "µM"}, "values": [
      {"smiles": "Cc1cc(C(=O)N2C[C@@H](C)N[C@@H](C)C2)c(/C=C2\\C(=O)Nc3cccc(-c4cccc(Cl)c4)c32)[nH]1", "IC50": "> 20"},
      {"smiles": "Cc1cc(C(=O)N2CC[C@@H](N(C)C)C2)c(/C=C2\\C(=O)Nc3cccc(-c4ccc(Cl)cc4)c32)[nH]1", "IC50": "> 20"},
      {"smiles": "Cc1cc(C(=O)NCCn2ccnn2)c(/C=C2\\C(=O)Nc3cccc(-c4cccc(Cl)c4)c32)[nH]1", "IC50": "> 20"},
      {"smiles": "Cc1[nH]c(/C=C2\\C(=O)Nc3cccc(-c4ccc(Cl)cc4)c32)c(C)c1C(=O)N1CCN(C)CC1", "IC50": "> 20"},
      {"smiles": "Cc1[nH]c(/C=C2\\C(=O)Nc3cccc(-c4ccc(Br)cc4)c32)c(C)c1C(=O)N1CCN(C)CC1", "IC50": "> 20"},
      {"smiles": "Cc1[nH]c(/C=C2\\C(=O)Nc3cccc(-c4ccc(Br)cc4)c32)c(C)c1C(=O)N1C[C@@H](C)N[C@@H](C)C1", "IC50": "> 20"},
      {"smiles": "Cc1cc(C(=O)NCCn2ccnn2)c(/C=C2\\C(=O)Nc3cccc(-c4ccccc4F)c32)[nH]1", "IC50": "> 20"},
      {"smiles": "Cc1[nH]c(/C=C2\\C(=O)Nc3cccc(-c4ccc(F)cc4)c32)c(C)c1C(=O)N1CCN(C)CC1", "IC50": "> 20"},
      {"smiles": "Cc1[nH]c(/C=C2\\C(=O)Nc3cccc(-c4cccc(C(F)(F)F)c4)c32)c(C)c1C(=O)N1CCN(C)CC1", "IC50": "> 20"},
      {"smiles": "CCN(CC)CCNC(=O)c1c(C)[nH]c(/C=C2\\C(=O)Nc3cccc(-c4cccc(OC)c4)c32)c1C", "IC50": "> 20"},
      {"smiles": "CCN(CC)CCNC(=O)c1c(C)[nH]c(/C=C2\\C(=O)Nc3cccc(-c4ccccc4)c32)c1C", "IC50": "> 20"},
      {"smiles": "Cc1cc(C(=O)N2C[C@@H](C)N[C@@H](C)C2)c(/C=C2\\C(=O)Nc3cccc(-c4ccc(Cl)cc4)c32)[nH]1", "IC50": "> 20"},
      {"smiles": "Cc1cc(C(=O)N2CC[C@H](N(C)C)C2)c(/C=C2\\C(=O)Nc3cccc(-c4ccc(F)cc4)c32)[nH]1", "IC50": "> 20"},
      {"smiles": "COc1cccc(-c2cccc3c2/C(=C/c2[nH]c(C)c(C(=O)NCCn4ccnn4)c2C)C(=O)N3)c1", "IC50": "> 20"},
      {"smiles": "Cc1cc(C(=O)NCCN2CCCC2)c(/C=C2\\C(=O)Nc3cccc(-c4ccc(F)c(Cl)c4)c32)[nH]1", "IC50": "> 20"},
      {"smiles": "Cc1[nH]c(/C=C2\\C(=O)Nc3cccc(-c4ccccc4F)c32)c(C)c1C(=O)N1CCN(C)CC1", "IC50": "> 20"},
      {"smiles": "CCN(CC)CCNC(=O)c1c(C)[nH]c(/C=C2\\C(=O)Nc3cccc(-c4ccc(OC(F)(F)F)cc4)c32)c1C", "IC50": "> 20"},
      {"smiles": "Cc1[nH]c(/C=C2\\C(=O)Nc3cccc(-c4cccc(F)c4)c32)c(C)c1C(=O)NCCn1ccnn1", "IC50": "> 20"},
      {"smiles": "CCN(CC)CCNC(=O)c1c[nH]c(/C=C2\\C(=O)Nc3cccc(-c4ccc(Br)cc4)c32)c1C", "IC50": "> 20"},
      {"smiles": "COc1ccc(-c2cccc3c2/C(=C/c2[nH]c(C)cc2C(=O)NCCN2CCCC2)C(=O)N3)cc1", "IC50": "> 20"},
      {"smiles": "COc1ccc(-c2cccc3c2/C(=C/c2[nH]c(C)c(C(=O)N4C[C@@H](C)N[C@@H](C)C4)c2C)C(=O)N3)cc1", "IC50": "> 20"},
      {"smiles": "COc1cccc(-c2cccc3c2/C(=C/c2[nH]c(C)c(C(=O)NCCN(C(C)C)C(C)C)c2C)C(=O)N3)c1", "IC50": "> 20"},
      {"smiles": "Cc1cc(C(=O)NCCN2CCCC2)c(/C=C2\\C(=O)Nc3cccc(-c4ccc(Br)cc4)c32)[nH]1", "IC50": "> 20"},
      {"smiles": "Cc1cc(C(=O)N2CC[C@H](N(C)C)C2)c(/C=C2\\C(=O)Nc3cccc(-c4cccc(Cl)c4)c32)[nH]1", "IC50": "> 20"}
    ]}
  ]
}
